Data: patent US7022311B1, “Powdery inhalational preparations and process for producing the same” (Kaken Pharmaceutical Co., Ltd., priority 1999, dated 2006)
Counter-ions that a name gives are not always drawn. Square brackets hold non-standard residues; d marks the D form. Peptide text beside a SMILES is read from it. d2Nal = N[C@H](Cc1ccc2ccccc2c1)C(=O)O

Assays:
[1] = Moisture absorption test (hygroscopic properties) of test carriers; assay type: physicochemical; parameters: key to % Moisture Absorption: x: Not possible to measure (because the samples deliquesced.); settings: for % Moisture Absorption: 25° C.; for Hygroscopicity, result in words: moisture absorption tests, comparison of carriers
Method: For the objective of selecting a material suitable as the carrier for a dry powder inhalation, moisture absorption tests were performed on erythritol, xylitol, lactose, D-mannitol, Amalty, glucose, Stevia, Benecoat and aspartame. […] (Tables 1, 2, and 3)
In order to ascertain that trehalose is a material having properties suitable as a carrier for dry powder inhalations, it was compared to lactose, a well-known carrier for dry powder inhalation. A test was carried out for comparing hygroscopicity. The trehalose used was the product of Asahi Kasei Kogyo KK, and Lactose 325M from the DMV Company. […] (Table 4, 5)

[2] = In vitro lung delivery fraction test with multi-stage cascade impactor (Andersen sampler, Jethaler); assay type: physicochemical; settings: Example 11: Pralmorelin dihydrochloride 5.0%, carrier erythritol 93.5%, micronized lactose 1.5%, 28.3 L/min
Method: Capsulated preparations (The Japanese Pharmacopeia No. 2 HPMC capsules: manufactured by Shionogi Qualicaps Co., Ltd.) which were filled with about 40 mg each of three dry powder inhalations were prepared and mounted on an inhaler device (Jethaler; Unisia Jecs Corp.) The Jethaler was then attached to the mouthpiece of a cascade impactor (Andersen sampler Model AN-200) and inspired at a flow rate of 28.3 L/min., thereby dispersing the micronized medication in the capsule and measuring the residual active ingredient in the capsule and in the inhaler device as well as the distribution of the active ingredient at each stage with liquid chromatography. It was confirmed that in the in vitro test with cascade impactor, the lung delivery fraction at stages 2–7 corresponding to the respiring fraction differed substantially depending on the different carrier particles.
(§1) Capsulated preparations (The Japanese Pharmacopeia No. 2HPMC capsules: manufactured by Shionogi Qualicaps Co., Ltd.), which were filled with about 40 mg each of three dry powder inhalations, were prepared and mounted on an inhaler device (Jethaler®; Unisia Jecs Corp.). The Jethaler® brand device was then attached to the mouthpiece of a cascade impactor (Andersen sampler; Model AN-200) and inspired at a flow rate of 28.3 L/min., thereby dispersing the dry powder inhalation in the capsule and measuring the residual active ingredient in the capsule and in the inhaler device as well as the distribution of the active ingredient at each stage with liquid chromatography.
(§2) A capsulated preparation (The Japanese Pharmacopeia No. 2HPMC capsules: manufactured by Shionogi Qualicaps Co., Ltd.) which was filled with about 40 mg of the prepared dry powder inhalations was prepared and mounted on an inhaler device (Jethaler; Unisia Jecs Corp.) The Jethaler was then attached to the mouthpiece of a cascade impactor (Andersen sampler; Model AN-200) and inspired at a flow rate of 28.3 L/min., thereby dispersing the dry powder inhalation in the capsule and measuring the residual active ingredient in the capsule and in the inhaler device as well as the distribution of the active ingredient at each stage with liquid chromatography.
as §1, with “A capsulated preparation (The” for “Capsulated preparations (The”, “which was” for “which were”, “mg” for “mg each”, “chromatography. […]” for “chromatography.”
as §2, with “2 HPMC” for “2HPMC”, “Ltd.)” for “Ltd.) which was”, “inhalation” for “inhalations”

[3] = Table 2, Humidity 75%, 24 Hours
[4] = Table 2, Humidity 75%, 48 Hours
[5] = Table 2, Humidity 75%, 72 Hours
[6] = Table 2, Humidity 75%, 168 Hours
[7] = Table 3, Humidity 90%, 16 Hours
[8] = Table 3, Humidity 90%, 24 Hours
[9] = Table 3, Humidity 90%, 48 Hours
[10] = Table 3, Humidity 90%, 72 Hours
[11] = Table 3, Humidity 90%, 168 Hours
[12] = Table 1, Humidity 60%, 24 Hours
[13] = Table 1, Humidity 60%, 72 Hours
[14] = Table 1, Humidity 60%, 168 Hours
[15] = Table 1, Humidity 60%, 366 Hours
[16] = Table 2, Humidity 75%, 336 Hours
[17] = Table 4, Humidity 60%, 24 Hours
[18] = Table 4, Humidity 60%, 72 Hours
[19] = Table 4, Humidity 60%, 168 Hours
[20] = Table 4, Humidity 60%, 366 Hours
[21] = Table 5, Humidity 75%, 48 Hours
[22] = Table 5, Humidity 75%, 72 Hours
[23] = Table 5, Humidity 75%, 168 Hours

% Moisture Absorption [1, 3] | % Moisture Absorption [1, 4] | % Moisture Absorption [1, 5] | % Moisture Absorption [1, 6] | % Moisture Absorption [1, 7] | % Moisture Absorption [1, 8] | % Moisture Absorption [1, 9] | % Moisture Absorption [1, 10] | % Moisture Absorption [1, 11] | % Moisture Absorption [1, 12] | % Moisture Absorption [1, 13] | % Moisture Absorption [1, 14] | % Moisture Absorption [1, 15] | % Moisture Absorption [1, 16] | Compound | further results
0.029% |  | 0.031% | 0.033% |  | 0.094% |  | 0.090% | 0.092% | 0.000% | 0.000% | 0.000% | 0.000% | 0.031% | OC[C@H]1O[C@@H](O[C@H]2[C@H](O)[C@@H](O)C(O)O[C@@H]2CO)[C@H](O)[C@@H](O)[C@H]1O (stereo partly shown) [Lactose 325M, Lactose] | % Moisture Absorption [1, 17]: 0.000%; % Moisture Absorption [1, 18]: 0.000%; % Moisture Absorption [1, 19]: 0.000%; % Moisture Absorption [1, 20]: 0.000%; % Moisture Absorption ([1]; Table 5, Humidity 75%, 16 Hours): 0.029%; % Moisture Absorption [1, 21]: 0.031%; % Moisture Absorption [1, 22]: 0.033%; % Moisture Absorption [1, 23]: 0.031%
0.087% | 0.104% | 0.126% | 0.124% |  | 3.796% | 17.917% | x | x | 0.000% | 0.000% | 0.019% | 0.021% | 0.126% | OC[C@@H](O)[C@H](O)[C@@H](O)CO [Xylitol] | 

The next lines start with the compound.

Compound | % Moisture Absorption [1, 3] | % Moisture Absorption [1, 4] | % Moisture Absorption [1, 5] | % Moisture Absorption [1, 6] | % Moisture Absorption [1, 7] | % Moisture Absorption [1, 8] | % Moisture Absorption [1, 9] | % Moisture Absorption [1, 10] | % Moisture Absorption [1, 11] | % Moisture Absorption [1, 12] | % Moisture Absorption [1, 13] | % Moisture Absorption [1, 14] | % Moisture Absorption [1, 15] | % Moisture Absorption [1, 16] | further results
OC[C@@H](O)[C@@H](O[C@H]1O[C@H](CO)[C@@H](O)[C@H](O)[C@H]1O)[C@H](O)[C@@H](O)CO [Amalty] | 0.478% | 1.138% | 1.171% | 1.252% | 0.775% | 0.971% | 2.513% | 3.373% | 8.391% |  |  |  |  |  | 
COC(=O)[C@H](Cc1ccccc1)NC(=O)[C@@H](N)CC(=O)O [Aspartame] (H-Asp-Phe-OMe) | 6.539% | 10.877% | 10.985% | 11.163% | 10.476% | 10.741% | 11.448% | 11.521% | 11.749% |  |  |  |  |  | 
OC[C@@H](O)[C@@H](O)[C@H](O)[C@H](O)CO [D-Mannitol] | 0.019% | 0.019% | 0.019% | 0.028% | 0.539% | 0.672% | 0.806% | 0.916% | 1.122% |  |  |  |  |  | 
OC[C@@H](O)[C@@H](O)CO [Erythritol] | 0.008% | 0.011% | 0.014% | 0.010% |  | 0.055% | 0.070% | 0.070% | 0.070% | 0.000% | 0.000% | 0.000% | 0.000% | 0.012% | Hygroscopicity, result in words [1]: least hygroscopic
C[C@H](NC(=O)[C@@H](Cc1ccc2ccccc2c1)NC(=O)[C@@H](C)N)C(=O)N[C@@H](Cc1c[nH]c2ccccc12)C(=O)N[C@H](Cc1ccccc1)C(=O)N[C@@H](CCCCN)C(N)=O [Pralmorelin dihydrochloride, reference compound] (H-[dA][d2Nal]AW[dF]K-NH2) |  |  |  |  |  |  |  |  |  |  |  |  |  |  | Residual and Distributed Fractions of Active Ingredient (%): Capsule [2]: 3.6%; Residual and Distributed Fractions of Active Ingredient (%): Inhaler device [2]: 11.5%; Residual and Distributed Fractions of Active Ingredient (%): Stage 0 [2]: 7.7%; Residual and Distributed Fractions of Active Ingredient (%): Stage 1 [2]: 26.6%
OC[C@H]1O[C@H](O[C@H]2O[C@H](CO)[C@@H](O)[C@H](O)[C@H]2O)[C@H](O)[C@@H](O)[C@@H]1O [Trehalose] |  |  |  |  |  |  |  |  |  |  |  |  |  |  | % Moisture Absorption [1, 17]: 0.000%; % Moisture Absorption [1, 18]: 0.000%; % Moisture Absorption [1, 19]: 0.000%; % Moisture Absorption [1, 20]: 0.000%; % Moisture Absorption [1, 21]: 0.008%; % Moisture Absorption [1, 22]: 0.023%; % Moisture Absorption [1, 23]: 0.020%; Hygroscopicity, result in words [1]: only slightly hygroscopic
